Entries after “also recorded” stand apart in the source; their conditions may differ.

One test concerns Stat3. The test can be described thus: Stat3 phosphorylation and nuclear translocation in C4HD cells. The test is classed as cell-based, mouse. As to conditions: MPA treatment of C4HD cells. As to the method: Lysates were prepared from cells subjected to the different treatments and proteins were subjected to SDS-PAGE as previously described (21). Membranes were immunoblotted with the antibodies detailed in each experiment. When phospho(p)-protein antibodies were used, filters were reprobed with total protein antibodies. Signal intensities of pErbB-2, pStat3, pSrc, pPR, pJak1, and pJak2 bands were analyzed by densitometry and normalized to total protein bands. Similarly, signal intensities of PR, cyclin D1, Stat3, and ErbB-2 bands were normalized to actin or β tubulin bands. […] The NEPER Nuclear and Cytoplasmic Extraction Reagents technique (Pierce Biotechnology) was performed as per manufacturer's instructions. Nuclear association between ErbB-2 and Stat3 was studied by performing coimmunoprecipitation experiments using 200 μg of nuclear protein lysates as described (22).
siRNAs targeting ErbB-2, Stat3, and Pr were synthesized by Dharmacon, Inc (Lafayatte, Colo.) (ErbB-2siRNA: 5′GAUGGUGCUUACUCAUUGA3′ (SEQ ID NO:8), designed to specifically knockdown mouse ErbB2 but not human ErbB-2; Stat3siRNA: 5′[…]3′ (SEQ ID NO:9) targets mouse Stat3; and 5′[…]3′ (SEQ ID NO:10) targets human Stat3; PRsiRNA: 5′[…]3′(SEQ ID NO:11)). […] Transfection of siRNAs duplexes was performed by using the DharmaFECT transfection reagent following the manufacturer's direction for 3 days. For reconstitution experiments cotransfection of 25 nM ErbB-2 siRNA with 2 μg expression vectors was performed using DharmaFECT Duo transfection reagent (Dharmacon).
Cells grown on glass coverslips were fixed and permeabilized in ice-cold methanol and were then blocked with PBS 1% BSA. ErbB-2 was localized using either a rabbit polyclonal (C-18) or a mouse monoclonal (F-11) ErbB-2 antibody (Santa Cruz Biotechnology) and Stat3 was detected using a mouse monoclonal antibody (124H6, Cell Signaling), followed by incubation with a goat anti-rabbit IgG-Alexa 488 (Molecular Probes, Eugene, Oreg.) secondary antibody for ErbB-2 (C-18) and with a rhodamine conjugated goat anti-mouse secondary antibody (Jackson ImmunoResearch Laboratories, West Grove, Pa.) for both ErbB2 (F-11) and Stat3. Negative controls were carried out using PBS instead of primary antibodies, or 5× competitive peptide (Santa Cruz Biotechnology) when ErbB-2 (C-18) was used. When cells were transfected with hErbB-2ΔNLS, green fluorescent protein from this expression vector was visualized by direct fluorescence imaging. […] FIGS. 2A, 3B and C, illustrate a few cells representative of the ones examined. Cells were analyzed using a Nikon Eclipse E800 confocal laser microscopy system (22).

The next test deals with ErbB-2. Kind of test: ErbB-2 cellular localization (subcellular fractionation/immunoblot, confocal microscopy) in T47D cells. The class given is cell-based, human. As to conditions: MPA treatment of T47D cells, 15 to 60 min. As to the method: Lysates were prepared from cells subjected to the different treatments and proteins were subjected to SDS-PAGE as previously described (21). Membranes were immunoblotted with the antibodies detailed in each experiment. When phospho(p)-protein antibodies were used, filters were reprobed with total protein antibodies. Signal intensities of pErbB-2, pStat3, pSrc, pPR, pJak1, and pJak2 bands were analyzed by densitometry and normalized to total protein bands. Similarly, signal intensities of PR, cyclin D1, Stat3, and ErbB-2 bands were normalized to actin or β tubulin bands. […]
Cells grown on glass coverslips were fixed and permeabilized in ice-cold methanol and were then blocked with PBS 1% BSA. ErbB-2 was localized using either a rabbit polyclonal (C-18) or a mouse monoclonal (F-11) ErbB-2 antibody (Santa Cruz Biotechnology) and Stat3 was detected using a mouse monoclonal antibody (124H6, Cell Signaling), followed by incubation with a goat anti-rabbit IgG-Alexa 488 (Molecular Probes, Eugene, Oreg.) secondary antibody for ErbB-2 (C-18) and with a rhodamine conjugated goat anti-mouse secondary antibody (Jackson ImmunoResearch Laboratories, West Grove, Pa.) for both ErbB2 (F-11) and Stat3. […] When cells were transfected with hErbB-2ΔNLS, green fluorescent protein from this expression vector was visualized by direct fluorescence imaging. […]

A further test deals with cyclin D1 promoter. The test can be described thus: Human cyclin D1 promoter luciferase reporter in C4HD cells. The test is classed as cell-based, mouse. The conditions noted are these: MPA 24 h, versus cells untreated with MPA. The text has this:
The luciferase reporter plasmid downstream the cyclin D1 human promoter region (−1745 cyclin D1-luc), and constructs truncated at positions −963, −261, −141, were kindly provided by Dr. R. Pestell (Northwestern University Medical School, Chicago, Ill.). These constructs were generated by truncation of the 1745-bp length promoter in order to sequentially exclude 5′ regions of the promoter. The −963 cyclin D1-luc construct excludes one GAS site (−984), the −261 cyclin D1-luc excludes three GAS sites (−984, −568 and −475) and the −141 cyclin D1-luc excludes four GAS sites (−984, −568, −475 and −239). The empty vector pA3 Luc was also provided by Dr. R. Pestell. The luciferase reporter plasmid containing four copies of the m67 high-affinity binding site (p4×m67-tk-luc) and the pTATA-tk-Luc reporter lacking the m67 insertion were a gift from Dr J. Darnell (The Rockefeller University, New York, N.Y.). The Renilla luciferase expression plasmid RLCMV was obtained from Promega (Madison, Wis.). Dominant negative Stat3 expression vector, Stat3Y705-F, which carries a tyrosine to phenylalanine substitution at codon 705 that reduces phosphorylation on tyrosine of the wild-type Stat3 protein, therefore inhibiting both dimerization and DNA binding of Stat3 (6,7,16) was kindly provided by Dr J. Darnell (New York, USA). The empty pcDNA3.1 vector was also a gift of Dr J. Darnell. Human wild-type ErbB-2 expression vector (hErbB-2WT) as well as the empty pMe18SM vector were a gift from by Dr. T. Yamamoto (University of Tokyo, Japan) (1). The GFP-tagged human ErbB-2 mutant which lacks the putative nuclear localization signal sequence (aa 676-KRRQQKIRKYTMRR-689) (SEQ ID NO:3), resulting in the sequence of KLM at the deletion junction (hErbB-2ΔNLS), was generously provided by Dr. M. C. Hung (The University of Texas M.D. Anderson Cancer Center, Houston, Tex.) (Giri et al., 2005). The empty pEGFP-N1 vector was obtained from BD Biosciences Clontech (Palo Alto, Calif.). The plasmid encoding the human wild-type hPR-B was kindly provided by Dr. K. Horwitz. In experiments assessing MPA capacity to induce the transcriptional activation of Stat3, C4HD and T47D cells were transiently transfected for 48 h with 1 μg of −1745 cyclin D1-luc reporter plasmid or the truncated −963, −261 and −141 constructs, or with 1 μg p4×m67-tk-luc and 10 ng of RL-CMV used to correct variations in transfection efficiency. As control, cells were transfected with 1 μg of either the pA3 Luc or pTATA-tk-Luc reporters. Cells were cotransfected with 2 μg of Stat3Y705-F when indicated. Total amount of transfected DNA was standardized by adding the empty pcDNA3.1 vector. […] Triplicate samples were analyzed for each datum point. Differences between experimental groups were analyzed by ANOVA followed by Tukey test between groups.

`CC(=O)O[C@]1(C(C)=O)CC[C@H]2[C@@H]3C[C@H](C)C4=CC(=O)CC[C@]4(C)[C@H]3CC[C@@]21C` [MPA, Medroxyprogesterone acetate]: the Stat3 nuclear translocation entry with Stat3 (30 and 60 min) was “induced nuclear translocation of Stat3; also recorded: present at the nuclear compartment and strongly phosphorylated at Tyr 705”. The “nuclear colocalization of ErbB-2 and Stat3” value with Stat3 (30 min, confocal) was “strong nuclear colocalization”. Also, the ErbB-2 nuclear translocation result in the test with ErbB-2 is reported as “resulted in ErbB-2 nuclear localization; also recorded: induced a strong ErbB-2 protein nuclear translocation”. Also, the “increase in cyclin D1 promoter activity” value in the test with cyclin D1 promoter is reported as 3 fold.

The values above are taken from patent US9427458B2, “Methods for inhibiting cancer cell proliferation” (Consejo Nacional de Investigaciones Cientificas y Tecnicas, …, priority 2010, dated 2016).
